{
  "source": "paper PMC3885398",
  "about": "“Evaluation of the Antitumor Effects of BPR1J-340, a Potent and Selective FLT3 Inhibitor, Alone or in Combination with an HDAC Inhibitor, Vorinostat, in AML Cancer” (PLoS ONE, 2014)",
  "key": {"[1]": {"tested_on": "STAT5 phosphorylation at Tyr694", "test": "STAT5 phosphorylation at Tyr694 in MOLM-13 cells, Western blot", "format": "cell-based, human", "details": "MOLM-13, 20 hours, Fig. 4D", "procedure": "(§1) Cells were lysed in lysis buffer (50 mM Tris, pH 8.0, 150 mM NaCl, 1% Triton X-100, 0.5% sodium deoxycholate, 0.1% SDS, 1 mM sodium orthovanadate, 1 mM PMSF, and 1 mM DTT). Protein lysates were resolved by SDS-PAGE and transferred onto a polyvinylidene difluoride (PVDF) membrane (Millipore, Bedford, MA, USA). The membranes were immunoblotted with appropriate antibodies and detected using the SuperSignal reagent (Pierce, Rockford, IL, USA) followed by exposure to X-ray film.\nSome histone deacetylase inhibitors (HDACi) will enhance the cytotoxic activity of FLT3 inhibitor on FLT3-ITD^+ cell via degradation of FLT3-ITD and STAT5 [24], [26], [36], [37]. To determine whether SAHA, an HDACi, can synergize with BPR1J-340 to enhance cytotoxicity in FLT3-ITD expressing cells by interfering with the FLT3-ITD and STAT5 axis, the combined effects of SAHA and BPR1J-340 on cytotoxicity were examined. The cell growth rate of MOLM-13 and MV4;11 with SAHA and BPR1J-340 combinational treatment was decreased compared with the single-drug treatment (Fig. 4A). […]\nFigure 4 The effect of BPR1J-340 and SAHA versus drug combination on AML FLT3-ITD+ cells. […] (A) Viable cells were counted after staining with trypan blue dye at indicated time point (B) At 48-hours after treatment, cells were stained with FITC-labeled annexin V and propidium iodide and percentages of apoptotic cells were analyzed by flow cytometry. […]"}, "[2]": {"target": "T1, FLT3-WT (Homo sapiens, UniProt P36888)", "T1 construct": "expressed in transfected cells; host or cells: HEK293T", "T1 sequence (P36888 27-993)": "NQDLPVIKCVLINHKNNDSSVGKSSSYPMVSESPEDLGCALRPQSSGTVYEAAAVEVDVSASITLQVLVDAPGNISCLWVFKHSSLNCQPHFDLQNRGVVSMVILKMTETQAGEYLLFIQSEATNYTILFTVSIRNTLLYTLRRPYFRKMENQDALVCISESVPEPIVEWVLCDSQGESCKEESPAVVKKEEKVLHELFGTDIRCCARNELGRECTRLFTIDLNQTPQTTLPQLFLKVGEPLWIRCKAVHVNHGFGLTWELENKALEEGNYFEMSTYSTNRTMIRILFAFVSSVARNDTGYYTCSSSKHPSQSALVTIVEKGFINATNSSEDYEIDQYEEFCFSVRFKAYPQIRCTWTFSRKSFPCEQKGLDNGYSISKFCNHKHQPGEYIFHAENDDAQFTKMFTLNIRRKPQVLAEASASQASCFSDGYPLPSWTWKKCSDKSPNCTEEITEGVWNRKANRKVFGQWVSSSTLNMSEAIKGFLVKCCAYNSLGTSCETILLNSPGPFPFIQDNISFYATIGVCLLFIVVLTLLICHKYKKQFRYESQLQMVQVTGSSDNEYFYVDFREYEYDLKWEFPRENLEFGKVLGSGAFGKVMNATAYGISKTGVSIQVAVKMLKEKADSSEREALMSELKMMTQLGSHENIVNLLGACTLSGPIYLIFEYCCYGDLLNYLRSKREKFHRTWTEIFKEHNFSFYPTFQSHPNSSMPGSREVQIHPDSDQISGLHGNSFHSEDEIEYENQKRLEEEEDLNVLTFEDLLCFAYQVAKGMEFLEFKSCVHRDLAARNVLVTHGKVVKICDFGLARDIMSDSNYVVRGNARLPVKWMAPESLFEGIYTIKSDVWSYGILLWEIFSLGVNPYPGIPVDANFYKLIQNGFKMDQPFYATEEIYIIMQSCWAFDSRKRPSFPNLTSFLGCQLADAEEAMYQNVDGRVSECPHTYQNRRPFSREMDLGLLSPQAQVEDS", "test": "FLT3 phosphorylation in transfected HEK293T cells, Western blot", "format": "cell-based", "details": "HEK293T cells expressing FLT3-WT, 1 hr, FLT3 ligand 50 ng/mL 5 min", "procedure": "as §1\nTo address whether BPR1J-340 was able to inhibit the FLT3 signaling pathway in FLT3-driven cells, MV4;11 cells were treated with different concentrations of BPR1J-340 for 1 hour, and the phosphorylation status of FLT3 and STAT5 (Signal Transducer and Activator of Transcription 5), a critical down-stream modulator that plays a major role in FLT3-ITD signal transduction for cell expansion and survival, was examined by Western blot analysis. […] To investigate the difference in sensitivity between FLT3-WT and the activating mutants FLT3-ITD and FLT3-D835Y to BPR1J-340, HEK293T cells engineered to express FLT3-WT or mutants FLT3 (FLT3-ITD, FLT3-D835Y) were analyzed. […]\nFigure 2 BPR1J-340 inhibits FLT3-dependent signaling. […] The phosphorylation status of FLT3 and STAT5 were evaluated by Western blot analysis. […] The FLT3 phosphorylation status in the transfected cells was evaluated by Western blot analysis."}},
  "data": [
    {"smiles": "CCc1cc(NC(=O)NCc2ccc(-c3cc(NC(=O)c4ccc(CN5CCN(C)CC5)cc4)[nH]n3)cc2)no1", "note": "[BPR1J-340, N1-(3-4-[([(5-ethyl-3-isoxazolyl)amino]carbonylamino)methyl]phenyl-1H-5-pyrazolyl)-4-[(4-methylpiperazino)methyl]benzamide]", "values": [
      {"measurement": "STAT5 phosphorylation at Tyr694", "setting": "[1]", "result": "completely block"},
      {"measurement": "IC50", "setting": "[2]", "result": "10 to 100", "unit": "nM"}
    ]}
  ]
}
